Measurements as given in patent publication US12421254B2, “KRAS modulators and uses thereof” (Quanta Therapeutics, Inc., priority 2023, dated 2025).
Where two headings read alike, the source gives them in different places.

Tests used:
[1] = molecular target: GST-tagged KRAS-G12D (2-169) (Homo sapiens, UniProt P01116, G12D); experiment: Nucleotide exchange assay (NEA), SOS-mediated, HTRF, KRAS G12D; type: biochemical; details: IC50 extracted at 30 min, 20 nM SOScat
How it was run: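 SOS1cat-driven loading of fluorescent GTP-DY-647P1 (150 nM) onto GST-KRAS-G12D (2-169, 0.25 nM) read by time-resolved FRET; SOScat 20 nM, compound preincubated with KRAS 1 h at RT. Signal blanked to no-SOS reactions, normalized to DMSO; IC50 fitted from the 30-min read.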

[2] = molecular target: GST-tagged KRAS-G12V (2-169) (Homo sapiens, UniProt P01116, G12V); experiment: Nucleotide exchange assay (NEA), SOS-mediated, HTRF, KRAS G12V; type: biochemical; details: Table 4; IC50 extracted at 90 min; 80 nM SOS
How it was run: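 Exchange onto fluorescent GTP-DY-647P1 (150 nM final) catalysed by 80 nM SOS1cat was followed by Tb-anti-GST HTRF at RT for up to 90 min, after 1 h compound pre-incubation with 0.25 nM GST-tagged KRAS-G12V (2-169), pH 7.3. DMSO = 0%, no-SOS blank = 100%; 4-parameter IC50 taken at 90 min.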

[3] = Table 4, read-out: NEA G12D IC50

Sequence of GST-tagged KRAS-G12V (2-169) (P01116 2-169 isoform P01116-2 G12V): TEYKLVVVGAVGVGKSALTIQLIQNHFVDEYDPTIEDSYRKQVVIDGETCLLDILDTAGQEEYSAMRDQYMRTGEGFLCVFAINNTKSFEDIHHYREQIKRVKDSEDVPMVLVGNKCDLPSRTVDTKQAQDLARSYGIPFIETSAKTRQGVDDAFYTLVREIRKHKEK
Sequence of GST-tagged KRAS-G12D (2-169) (P01116 2-169 isoform P01116-2 G12D): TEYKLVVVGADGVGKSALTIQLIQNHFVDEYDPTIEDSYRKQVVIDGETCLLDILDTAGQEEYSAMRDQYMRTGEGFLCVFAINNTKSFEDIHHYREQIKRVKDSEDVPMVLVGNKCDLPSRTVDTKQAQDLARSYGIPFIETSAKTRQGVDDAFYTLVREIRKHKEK

## C[C@@]1(O)CCCN(c2nc(OC[C@@]34CCCN3C[C@H](F)C4)nc(N3CCC4(CCc5sc(N)c(C#N)c54)C3)n2)C1 (stereo partly drawn) [Compound 11, 2-amino-1′-[4-[[(2R,8S)-2-fluoro-1,2,3,5,6,7-hexahydropyrrolizin-8-yl]methoxy]-6-[(3R)-3-hydroxy-3-methyl-1-piperidyl]-1,3,5-triazin-2-yl]spiro[5,6-dihydrocyclopenta[b]thiophene-4,3′-pyrrolidine]-3-carbonitrile]
[1]; Table 2, read-out: NEA-G12D (uM) IC50
  IC50: 0.1 to 1 µM
[1]; [3]
  IC50: 0.1 to 1 µM
[2]
  IC50: 100 to 1000 nM

## C[C@H](c1cccnc1N)N(C)c1nc(OC[C@@]23CCCN2C[C@H](F)C3)nc(N2CC3(CCc4cnn(C)c43)C2)n1 [Compound 278, N-[(1R)-1-(2-amino-3-pyridyl)ethyl]-4-[[(2R,8S)-2-fluoro-1,2,3,5,6,7-hexahydropyrrolizin-8-yl]methoxy]-N-methyl-6-(1-methylspiro[4,5-dihydrocyclopenta[d]pyrazole-6,3′-azetidine]-1′-yl)-1,3,5-triazin-2-amine]
[1]; [3]
  IC50: 1 to 20 µM
[2]
  IC50: 1000 to 20000 nM

## N#Cc1c(N)sc2c1C1(CC2)CN(c2nc(OC[C@@]34CCCN3C[C@H](F)C4)nc(N3CCC4CC4(CO)C3)n2)C1 (stereo partly drawn) [Compound 41, 2-amino-1′-[4-[[(2R,8S)-2-fluoro-1,2,3,5,6,7-hexahydropyrrolizin-8-yl]methoxy]-6-[1-(hydroxymethyl)-3-azabicyclo[4.1.0]heptan-3-yl]-1,3,5-triazin-2-yl]spiro[5,6-dihydrocyclopenta[b]thiophene-4,3′-azetidine]-3-carbonitrile]
[1]; [3]
  IC50: 1 to 20 µM
[2]
  IC50: 100 to 1000 nM

## N#CCC12CC1CN(c1nc(OC[C@@]34CCCN3C[C@H](F)C4)nc(N3CC4(CCc5sc(N)c(C#N)c54)C3)n1)C2 (stereo partly drawn) [Compound 42, 2-amino-1′-[4-[1-(cyanomethyl)-3-azabicyclo[3.1.0]hexan-3-yl]-6-[[(2R,8S)-2-fluoro-1,2,3,5,6,7-hexahydropyrrolizin-8-yl]methoxy]-1,3,5-triazin-2-yl]spiro[5,6-dihydrocyclopenta[b]thiophene-4,3′-azetidine]-3-carbonitrile]
[1]; [3]
  IC50: 1 to 20 µM
[2]
  IC50: 100 to 1000 nM

## CC(c1ccnn1C)N(C)c1nc(OC[C@@]23CCCN2C[C@H](F)C3)nc(N2CC3(CCc4sc(N)c(C#N)c43)C2)n1 (stereo partly drawn) [Compound 125, 2-amino-1′-[4-[[(2R,8S)-2-fluoro-1,2,3,5,6,7-hexahydropyrrolizin-8-yl]methoxy]-6-[methyl-[i-(2-methylpyrazol-3-yl)ethyl]amino]-1,3,5-triazin-2-yl]spiro[5,6-dihydrocyclopenta[b]thiophene-4,3′-azetidine]-3-carbonitrile]
[1]; [3]
  IC50: 1 to 20 µM
[2]
  IC50: 10 to 100 nM

## CCN(c1nc(OCC2(CO)CCCN2)nc(N2CC3(C2)SCc2sc(N)c(C#N)c23)n1)[C@H](C)c1cccnc1N (stereo partly drawn) [Compound 208, 2-amino-1′-[4-[[(1R)-1-(2-amino-3-pyridyl)ethyl]-ethyl-amino]-6-[[2-(hydroxymethyl)pyrrolidin-2-yl]methoxy]-1,3,5-triazin-2-yl]spiro[6H-thieno[3,4-b]thiophene-4,3′-azetidine]-3-carbonitrile]
[1]; [3]
  IC50: < 0.01 µM
[2]
  IC50: < 10 nM

## CC(c1cccnc1N)N(C)c1nc(OC[C@@H]2CCC(=O)N2)nc(N2CC3(CCc4sc(N)c(C#N)c43)C2)n1 (stereo partly drawn) [Compound 112, 2-amino-1′-[4-[1-(2-amino-3-pyridyl)ethyl-methyl-amino]-6-[[(2S)-5-oxopyrrolidin-2-yl]methoxy]-1,3,5-triazin-2-yl]spiro[5,6-dihydrocyclopenta[b]thiophene-4,3′-azetidine]-3-carbonitrile]
[1]; [3]
  IC50: 1 to 20 µM
[2]
  IC50: 100 to 1000 nM

## CC(O)CN(c1nc(OC[C@@]23CCCN2C[C@H](F)C3)nc(N2CC3(C2)SCc2sc(N)c(C#N)c23)n1)C1(C#N)CC1 (stereo partly drawn) [Compound 261, 2-amino-1′-[4-[(1-cyanocyclopropyl)-(2-hydroxypropyl)amino]-6-[[(2R,8S)-2-fluoro-1,2,3,5,6,7-hexahydropyrrolizin-8-yl]methoxy]-1,3,5-triazin-2-yl]spiro[6H-thieno[3,4-b]thiophene-4,3′-azetidine]-3-carbonitrile]
[1]; [3]
  IC50: < 0.01 µM
[2]
  IC50: < 10 nM

## C[C@@]1(O)CCCN(c2nc(OC[C@@]34CCCN3C[C@H](F)C4)nc(N3CC4(C3)c3c(sc(N)c3C#N)C[S+]4[O-])n2)C1 (stereo partly drawn) [Compound 126, 2-amino-5-oxo-1′-[4-[[(2R,8S)-2-fluoro-1,2,3,5,6,7-hexahydropyrrolizin-8-yl]methoxy]-6-[(3R)-3-hydroxy-3-methyl-1-piperidyl]-1,3,5-triazin-2-yl]spiro[6H-thieno[3,4-b]thiophene-4,3′-azetidine]-3-carbonitrile]
[1]; [3]
  IC50: 0.01 to 0.1 µM
[2]
  IC50: 1000 to 20000 nM

## N#Cc1c(N)sc2c1C1(CN(c3nc(OCC4(CN5CCOCC5)CC4)nc(N4CCNC[C@@H]4CO)n3)C1)SC2 [Compound 185, (R)-2′-amino-1-(4-(2-(hydroxymethyl)piperazin-1-yl)-6-((1-(morpholinomethyl)cyclopropyl)methoxy)-1,3,5-triazin-2-yl)-6′H-spiro[azetidine-3,4′-thieno[3,4-b]thiophene]-3′-carbonitrile]
[1]; [3]
  IC50: < 0.01 µM
[2]
  IC50: 100 to 1000 nM

## C[C@@H]1[C@H](C#N)CCCN1c1nc(OC[C@@]23CCCN2C[C@H](F)C3)nc(N2CC3(CCc4sc(N)c(C#N)c43)C2)n1 (racemic) [Compound 29, 2-amino-1′-[4-[rac-(2R,3R)-3-cyano-2-methyl-1-piperidyl]-6-[[(2R,8S)-2-fluoro-1,2,3,5,6,7-hexahydropyrrolizin-8-yl]methoxy]-1,3,5-triazin-2-yl]spiro[5,6-dihydrocyclopenta[b]thiophene-4,3′-azetidine]-3-carbonitrile]
[1]; [3]
  IC50: 0.1 to 1 µM
[2]
  IC50: 100 to 1000 nM

## N#Cc1c(N)sc2c1C1(CN(c3nc(OC[C@@]45CCCN4C[C@H](F)C5)nc(N4C5CCC4COC5)n3)C1)SC2 (racemic) [Compound 274, 2-amino-1′-[4-(3-oxa-8-azabicyclo[3.2.1]octan-8-yl)-6-[[rac-(2R,8S)-2-fluoro-1,2,3,5,6,7-hexahydropyrrolizin-8-yl]methoxy]-1,3,5-triazin-2-yl]spiro[6H-thieno[3,4-b]thiophene-4,3′-azetidine]-3-carbonitrile]
[1]; [3]
  IC50: 0.1 to 1 µM
[2]
  IC50: 10 to 100 nM

## CC(C1=NN=CC1Cl)N(C)c1nc(OC[C@@]23CCCN2C[C@H](F)C3)nc(N2CC3(CCc4sc(N)c(C#N)c43)C2)n1 (stereo partly drawn) [Compound 127, 2-amino-1′-[4-[1-(4-chloro-1H-pyrazol-5-yl)ethyl-methyl-amino]-6-[[(2R,8S)-2-fluoro-1,2,3,5,6,7-hexahydropyrrolizin-8-yl]methoxy]-1,3,5-triazin-2-yl]spiro[5,6-dihydrocyclopenta[b]thiophene-4,3′-azetidine]-3-carbonitrile]
[1]; [3]
  IC50: 1 to 20 µM
[2]
  IC50: 100 to 1000 nM

## CN(c1nc(OC[C@@]23CCCN2C[C@H](F)C3)nc(N2CC3(C2)SCc2sc(N)c(C#N)c23)n1)[C@H]1[C@H]2CN[C@@H]1C2 [Compound 257, 2-amino-1′-[4-[[(1R,4R,5S)-2-azabicyclo[2.1.1]hexan-5-yl]-methyl-amino]-6-[[(2R,8S)-2-fluoro-1,2,3,5,6,7-hexahydropyrrolizin-8-yl]methoxy]-1,3,5-triazin-2-yl]spiro[6H-thieno[3,4-b]thiophene-4,3′-azetidine]-3-carbonitrile]
[1]; [3]
  IC50: < 0.01 µM
[2]
  IC50: 10 to 100 nM

## CC(c1cncnc1O)N(C)c1nc(OC[C@@]23CCCN2C[C@H](F)C3)nc(N2CC3(CCc4sc(N)c(C#N)c43)C2)n1 (stereo partly drawn) [Compound 155, 2-amino-1′-[4-[[(2R,8S)-2-fluoro-1,2,3,5,6,7-hexahydropyrrolizin-8-yl]methoxy]-6-[1-(4-hydroxypyrimidin-5-yl)ethyl-methyl-amino]-1,3,5-triazin-2-yl]spiro[5,6-dihydrocyclopenta[b]thiophene-4,3′-azetidine]-3-carbonitrile]
[1]; [3]
  IC50: 1 to 20 µM
[2]
  IC50: 1000 to 20000 nM

## CN(C)CC1(COc2nc(N3CCOCC(C)(O)C3)nc(N3CC4(C3)SCc3sc(N)c(C#N)c34)n2)CC1(F)F (stereo not drawn) [Compound 281, 2-amino-1′-[4-[[1-[(dimethylamino)methyl]-2,2-difluoro-cyclopropyl]methoxy]-6-(6-hydroxy-6-methyl-1,4-oxazepan-4-yl)-1,3,5-triazin-2-yl]spiro[6H-thieno[3,4-b]thiophene-4,3′-azetidine]-3-carbonitrile]
[1]; [3]
  IC50: < 0.01 µM
[2]
  IC50: < 10 nM
